Test results as given in patent EP0888293B1, “N-ACYLAMINOALKYLHYDRAZINECARBOXIMIDAMIDES” (ALTEON Inc., priority 1995, dated 1997).
Structures can show the parent of a compound that is named as a salt.

Key:
[1] = system: N-acetyl glycyl-lysine methyl ester; assay: Inhibition of cross-linking of N-acetyl glycyl-lysine methyl ester in the presence of ribose (fluorescence); format: biochemical; details: N-acetylglycyllysine methyl ester + ribose, pH 7.4, 37°C, 16-24 hours, fluorescence 350/400 nm
Method: The following method was used to evaluate the ability of the compounds of the present invention to inhibit the cross-linking of N-acetyl glycyl-lysine methyl ester in the presence of ribose.
• 0.5 M sodium phosphate buffer pH 7.4 • N-acetylglycyllysine methyl ester in 0.5M sodium phosphate buffer, pH 7.4 • Ribose: 800 mM • Test compounds dissolved in the above buffer and the pH is adjusted to 7.4, if necessary
Reaction mixtures are prepared as follows:
and incubated at 37°C for 16-24 hours. At the end of the incubation period, the fluorescence is read using an excitation wavelength of 350 nm and emission wavelength of 400 nm.

[2] = target: T1, inducible nitric oxide synthase (Mus musculus, UniProt P29477); assay: Nitric oxide production by lipopolysaccharide-induced macrophage cells; format: cell-based; details: RAW 264.7 macrophage cells induced with lipopolysaccharide; test concentration not given
T1 construct: Nitric oxide (NO) production by macrophage cells (RAW 264.7) is induced with lipopolysaccharride; endogenous in cells; host or cells: RAW 264.7 macrophage cells, LPS-induced

[3] = system: fixed protein (gelatin, i.e., collagen) surface; assay: Surface browning experiment on gelatin/paper disks; details: 100 mM glucose-6-phosphate, one week at 50°C, pH 7.4; Peridex at final concentration of 0.04% chlorhexidine, no compound of Formula I
Method: To further study the ability of inhibitors of nonenzymatic browning to prevent the discoloration of protein on a surface, such as that which occurs on the tooth surface, the following surface browning experiment is performed. As a substitute for a pellicle-covered tooth surface, unexposed and developed photographic paper is used to provide a fixed protein (gelatin, i.e., collagen) surface on a paper backing. Five millimeter circles are punched and immersed for one week at 50°C in a solution of 100 mM glucose-6-phosphate in a 0.5 M phosphate buffer, pH 7.4, containing 3 mM sodium azide. Glucose-6-phosphate is a sugar capable of participating in nonenzymatic browning at a more rapid rate than glucose. In addition to the glucose-6-phosphate, chlorhexidine and/or a compound of Formula I are included. After incubation, the gelatin/paper disks are rinsed with water, observed for brown color, and photographed.

Structure (SMILES)	IC50 [1] [mM]	% inhibition of NO release [2] [%]	IC50 ([1]; hydrobromide) [mM]	IC50 ([1]; hydrochloride) [mM]	browning of gelatin/paper disks [3]
N=C(N)NN [Aminoguanidine hydrochloride, reference compound]	10	44			
Br.CC(=O)NCCNC(=N)NN [N-(2-acetamidoethyl)hydrazine carboximidamide hydrobromide]		20	11.5		
CC(=O)NCCNC(=N)NN.Cl [N-(2-acetamidoethyl)hydrazine carboximidamide hydrochloride]		15		10.6	
CC(=O)NCCCNC(=N)NN [N-(3-acetamidopropyl)hydrazinecarboximidamide]	> 10	33			
[H]/N=C(\N/C(=N/[H])NCCCCCCNC(=N)NC(=N)Nc1ccc(Cl)cc1)Nc1ccc(Cl)cc1 [chlorhexidine]					significant browning
